{"source": "patent US20210138025A1", "about": "“CATIONIC PEPTIDES WITH IMMUNOMODULATORY AND/OR ANTI-BIOFILM ACTIVITIES” (priority 2018, published 2021)", "format_in_all_cases": "cell-based", "key": {"E. coli (Ec)": {"tested_on": "E. coli (Ec)", "settings": "Ec"}, "T-lymphocytes [1]": {"tested_on": "T-lymphocytes", "test": "Cytokine production in T-lymphocytes, canine (Table 24)", "settings": "no additional stimulant, background (NONE) subtracted"}, "[2]": {"tested_on": "ConA stimulated monocytes", "test": "Anti-inflammatory activity in ConA stimulated monocytes, canine (Table 23)", "settings": "32 μg/ml peptide, negative = increase"}, "LPS stimulated monocytes": {"tested_on": "LPS stimulated monocytes", "test": "Anti-inflammatory activity in LPS stimulated monocytes, bovine (Table 23)", "settings": "32 μg/ml peptide, negative = increase"}, "monocytes": {"tested_on": "monocytes", "test": "Cytokine production in unstimulated monocytes, canine (Table 22)", "settings": "background subtracted", "protocol": "A subset of peptides was tested for stimulation of cytokine production in monocytes (Table 22). For the tested cytokines, the peptides tended to show anti-inflammatory activity rather than […] activity."}, "T-lymphocytes [3]": {"tested_on": "T-lymphocytes", "test": "Anti-inflammatory activity towards stimulated T-lymphocytes, bovine (Table 25)", "settings": "Bovine T-cells, 32 μg/ml of peptide"}, "[4]": {"tested_on": "Pseudomonas aeruginosa (Pa)", "protocol": "(§1) The same strains as in Table 18 were assessed for Minimal Biofilm Inhibitory Concentrations (MBIC) (Table 19). Italics=excellent activity (less than or equal to 4 μg/ml). ND=Not determined. Peptides 3013, 3015 and 3016 inhibited biofilm growth in the largest number of bacterial strains (5, 5 and 6 out of 13 strains, respectively)."}, "Streptococcus suis (Ss)": {"tested_on": "Streptococcus suis (Ss)", "protocol": "as §1"}, "Histophilus somnus (Hs)": {"tested_on": "Histophilus somnus (Hs)", "protocol": "as §1"}, "[5]": {"tested_on": "Staphylococcus pseudintermedius (Sp)", "protocol": "as §1"}, "[6]": {"tested_on": "Bordatella bronchiseptica (Bb)", "protocol": "as §1"}, "[7]": {"tested_on": "Streptococcus dysgalactiae (Sd)", "protocol": "as §1"}, "[8]": {"tested_on": "Staphylococcus epidermidis (Se)", "protocol": "as §1"}, "[9]": {"tested_on": "Mannheimia haemolytica (Mh)", "protocol": "as §1"}, "[10]": {"tested_on": "Streptococcus uberis (Su)", "protocol": "as §1"}, "[11]": {"tested_on": "Pasteurella multocida (Pm)", "protocol": "as §1"}, "[12]": {"tested_on": "Streptococcus agalactiae (Sa)", "protocol": "as §1"}}, "note": "Non-standard residues stand in square brackets, D forms with d. Residues, ends and D or L forms follow the SMILES beside them.", "data": [{"compound": "CC[C@@H](C)[C@@H](NC(=O)[C@@H](C)NC(=O)[C@@H](CCCNC(=N)N)NC(=O)[C@@H](Cc1c[nH]c2ccccc12)NC(=O)[C@@H](CCC(N)=O)NC(=O)[C@H](N)C(C)C)C(=O)N[C@H](CCCNC(=N)N)C(=O)N[C@@H](C(=O)N[C@H](CCCNC(=N)N)C(=O)N[C@@H](C(=O)N[C@@H](C(=O)N[C@H](CCCNC(=N)N)C(N)=O)[C@H](C)CC)C(C)C)C(C)C", "note": "[DJK5, VQWRAIRVRVIR] (H-[dV][dQ][dW][dR][dA][dI][dR][dV][dR][dV][dI][dR]-NH2; N-terminus and C-terminus assumed)", "values": [{"measurement": "MIC E. coli", "setting": "E. coli (Ec)", "result": "<1", "unit": "µg/mL"}, {"measurement": "MIC Ec", "setting": "E. coli (Ec)", "result": "<1", "unit": "µg/mL"}, {"measurement": "Concentration of T-cell cytokines in the absence of additional stimulant: IFNγ", "setting": "T-lymphocytes [1]", "result": 11, "unit": "pg/mL"}, {"measurement": "Concentration of T-cell cytokines in the absence of additional stimulant: IL-2", "setting": "T-lymphocytes [1]", "result": 13, "unit": "pg/mL"}, {"measurement": "Concentration of T-cell cytokines in the absence of additional stimulant: IL-4", "setting": "T-lymphocytes [1]", "result": 71, "unit": "pg/mL"}, {"measurement": "Concentration of T-cell cytokines in the absence of additional stimulant: IL-6", "setting": "T-lymphocytes [1]", "result": 149, "unit": "pg/mL"}, {"measurement": "Concentration of T-cell cytokines in the absence of additional stimulant: IL-13", "setting": "T-lymphocytes [1]", "result": -100, "unit": "pg/mL"}, {"measurement": "Concentration of T-cell cytokines in the absence of additional stimulant: TNFα", "setting": "T-lymphocytes [1]", "result": -46, "unit": "pg/mL"}, {"measurement": "% Monocyte cytokine decrease in presence of LPS/ConA, IFNγ", "setting": "[2]", "result": 13.7, "unit": "%"}, {"measurement": "% Monocyte cytokine decrease in presence of LPS/ConA, IL-2", "setting": "[2]", "result": 38.9, "unit": "%"}, {"measurement": "% Monocyte cytokine decrease in presence of LPS/ConA, IL-4", "setting": "[2]", "result": 32.6, "unit": "%"}, {"measurement": "% Monocyte cytokine decrease in presence of LPS/ConA, IL-6", "setting": "[2]", "result": 39.9, "unit": "%"}, {"measurement": "% Monocyte cytokine decrease in presence of LPS/ConA, IL-13", "setting": "[2]", "result": 36.5, "unit": "%"}, {"measurement": "% Monocyte cytokine decrease in presence of LPS/ConA, TNFα", "setting": "[2]", "result": 44.3, "unit": "%"}, {"measurement": "% Monocyte cytokine decrease in presence of LPS/ConA, IFNγ", "setting": "LPS stimulated monocytes", "result": 31.6, "unit": "%"}, {"measurement": "% Monocyte cytokine decrease in presence of LPS/ConA, IL-2", "setting": "LPS stimulated monocytes", "result": 34.0, "unit": "%"}, {"measurement": "% Monocyte cytokine decrease in presence of LPS/ConA, IL-4", "setting": "LPS stimulated monocytes", "result": 3.9, "unit": "%"}, {"measurement": "% Monocyte cytokine decrease in presence of LPS/ConA, IL-6", "setting": "LPS stimulated monocytes", "result": 21.0, "unit": "%"}, {"measurement": "% Monocyte cytokine decrease in presence of LPS/ConA, IL-13", "setting": "LPS stimulated monocytes", "result": 65.5, "unit": "%"}, {"measurement": "% Monocyte cytokine decrease in presence of LPS/ConA, TNFα", "setting": "LPS stimulated monocytes", "result": 68.1, "unit": "%"}, {"measurement": "Concentration of Monocyte cytokine IFNγ in absence of additional stimulant", "setting": "monocytes", "result": -310, "unit": "pg/mL"}, {"measurement": "Concentration of Monocyte cytokine IL-2 in absence of additional stimulant", "setting": "monocytes", "result": 86, "unit": "pg/mL"}, {"measurement": "Concentration of Monocyte cytokine IL-4 in absence of additional stimulant", "setting": "monocytes", "result": -241, "unit": "pg/mL"}, {"measurement": "Concentration of Monocyte cytokine IL-6 in absence of additional stimulant", "setting": "monocytes", "result": -113, "unit": "pg/mL"}, {"measurement": "Concentration of Monocyte cytokine IL-13 in absence of additional stimulant", "setting": "monocytes", "result": -25, "unit": "pg/mL"}, {"measurement": "Concentration of Monocyte cytokine TNFα in absence of additional stimulant", "setting": "monocytes", "result": -73, "unit": "pg/mL"}, {"measurement": "% Cytokine decrease in the presence of LPS/ConA: IFNγ", "setting": "T-lymphocytes [3]", "result": 34.9, "unit": "%"}, {"measurement": "% Cytokine decrease in the presence of LPS/ConA: IL-2", "setting": "T-lymphocytes [3]", "result": 80.7, "unit": "%"}, {"measurement": "% Cytokine decrease in the presence of LPS/ConA: IL-4", "setting": "T-lymphocytes [3]", "result": 37.7, "unit": "%"}, {"measurement": "% Cytokine decrease in the presence of LPS/ConA: IL-6", "setting": "T-lymphocytes [3]", "result": "−16.4", "unit": "%"}, {"measurement": "% Cytokine decrease in the presence of LPS/ConA: IL-13", "setting": "T-lymphocytes [3]", "result": 85.3, "unit": "%"}, {"measurement": "% Cytokine decrease in the presence of LPS/ConA: TNFα", "setting": "T-lymphocytes [3]", "result": 38.2, "unit": "%"}, {"measurement": "MBIC", "setting": "[4]", "result": 8, "unit": "µg/mL"}, {"measurement": "MBIC", "setting": "Streptococcus suis (Ss)", "result": 4, "unit": "µg/mL"}, {"measurement": "MBIC", "setting": "Histophilus somnus (Hs)", "result": "<1", "unit": "µg/mL"}, {"measurement": "MBIC", "setting": "[5]", "result": "<1", "unit": "µg/mL"}, {"measurement": "MBIC", "setting": "[6]", "result": 2, "unit": "µg/mL"}, {"measurement": "MBIC", "setting": "[7]", "result": 2, "unit": "µg/mL"}, {"measurement": "MBIC", "setting": "[8]", "result": 2, "unit": "µg/mL"}, {"measurement": "MBIC", "setting": "[9]", "result": 4, "unit": "µg/mL"}, {"measurement": "MBIC", "setting": "[10]", "result": 2, "unit": "µg/mL"}, {"measurement": "MBIC", "setting": "[11]", "result": 2, "unit": "µg/mL"}, {"measurement": "MBIC", "setting": "[12]", "result": 2, "unit": "µg/mL"}]}]}
